Data as given in patent US5892029A, “3-hydroxy-2(1H)-pyridinone chelating agents” (priority 1997, dated 1999).
“Also recorded” adds a separate entry of the source. Where two headings read alike, the source gives them in different places.

Tests used:
[1] = Fe(III) complex formation constants and pM; assay type: binding; settings: pH 7.4; chelator 10 and metal ion 1 μM
Source text: The new HOPO monomers display high affinity for ferric ions. For example, 1-methyl-4(1-propylcarbamoyl)-3-hydroxy-2(1H)-pyridinone (Formula 9C, backbone=n-propyl, R'=H, R1 =methyl) has overall complex binding constants on the order of 10^28.7 M-3 for Fe(III). However, because of the 3:1 stoichiometry of the bidentate monomer/Fe complex, its stability is strongly dependent on its concentration (by the 3rd power). Generally, the pM concept was used to define the concentration of unchelated metal ion at physiological pH (7.4), and at chelator and metal ion concentrations (10 and 1 μM, respectively) which are those expected in the plasma of a chelator-treated patient. […] Since the multidentate 3,2-HOPO ligands have higher pM values than their bidentate analogs, they have stronger scavenging power for iron and actinides in vivo. For example, the bidentate compound 1-methyl-4(1-propylcarbamoyl)-3-hydroxy-2(1H)-pyridinone has a pM of 19.26 for Fe(III), while the hexadentate compound TREN-Me-3,2-HOPO (Formula 12, m=1) has a pM of 26.69 for Fe(III).

[2] = Chemical and physical properties (solubility, pKa, pH, hygroscopicity); assay type: physicochemical
[3] = Promoting excretion of 241Am(III) in mice by injected ligands (Table 5); assay type: in vivo
Source text: (§1) Animal studies were completed using methods detailed in Radiation Protection Dosimetry, 1994, 53, 305: P. W. Durbin et al., "In Vivo Chelation of Am(III), Pu(IV), Np(V) and U(VI) in Mice by TREN-(Me-3,2-HOPO)"; Radiation Protection Dosimetry, 1989, 17, 351: P. W. Durbin et al., "Removal of ^238 Pu(IV) from Mice by Polycatechoylate, -Hydroxamate or -Hydroxypyridinonate Ligands"; Radiation Research, 1984, 99, 85: P. W. Durbin et al., "Specific Sequestering Agents for the Actinides . . . "; Radiation Research, 1984, 99, 106: P. W. Durbin et al., "Removal of Pu and Am from Beagles and Mice . . . "; Radiation Research, 1980, 81, 170: R. D. Lloyd et al., and P. W. Durbin et al., "Specific Sequestering Agents for the Actinides . . . ". The foregoing articles are hereby incorporated by reference.
Radionuclides used in the animal studies came from a variety of sources. The ^238 Pu(IV) citrate and ^241 Am(III) citrate solutions were prepared for animal injection by 8- to 10-fold dilution with 0.14M NaC1 (pH 4) of concentrated stock solutions (0.08M sodium citrate buffer) that had been held in frozen storage at Lawrence Berkeley Laboratory (hereinafter LBL) for several years. [The ^238 Pu(IV) was originally obtained from D. R. Atherton at the University of Utah Radiobiology Laboratory, Salt Lake City. The ^241 Am(III) solution had been obtained many years earlier from the LBL Actinide Chemistry group.]
(§2) One of the novel chelating agents of the present invention, TREN-Me-3,2-HOPO, was also tested for effectiveness in promoting excretion of ^241 AM(III), ^237 Np(V), and ^232 U(VI) by injection into mice, as follows: Mice, in groups of five, each received an intravenous injection of (a) 1100 Bq of ^241 Am(III) in 0.2 mL of citrate buffer, (b) 150 Bq of ^232 UO2 Cl2 plus 3.6 mg of ^235 UO2 Cl2 in 0.2 mL of saline, or (c) 200 Bq of ^237 NpO2 Cl ([…] of ^237 NPO2 Cl) in 0.2 mL of saline. Three to five minutes later, 30 μmol/kg of TREN-Me-3,2-HOPO was injected intraperitoneally in 0.5 mL of saline. The mice were killed 24 hours after the actinide injection, frozen, and dissected after partial thawing. The skeleton, soft tissues, and separated excreta were radioanalyzed by counting the ^241 Am gamma rays, or the alpha particles emitted by ^237 Np or ^232 U (and its ingrowing daughters). Removal of those actinides from mice by injected TREN-Me-3,2-HOPO is summarized in Table 5, which also includes data for mice similarly treated with CaNa3 -DTPA and for actinide-injected controls. […] The structure of Am(III)-TREN-Me-3,2-HOPO is considered to resemble that of the Gd(III) complexes (see Example 20). Complexation of the fraction of Np(V) that is reduced in vivo to Np(IV) is considered to resemble that of Pu(IV). Complexation of U(VI) is considered to take place through binding to UO2^2+.
(§3) ^a Ligands (30 μmol/kg) i.p. at 3 to 5 min after actinide i.v.;

[4] = Promoting excretion of 238Pu(IV) in mice by orally administered ligands (Table 4); assay type: in vivo; settings: 30 μmol/kg by gavage
Source text: as §1
Radionuclides used in the animal studies came from a variety of sources. […]
The novel chelating agents of the present invention were tested for their effectiveness in promoting excretion of ^238 Pu(IV) by oral administration to mice as follows. […] The ^238 Pu(IV) in skeleton, soft tissues, and separated excreta was determined by counting the ^234 U L x-rays. […]

[5] = Promoting excretion of U(VI) in mice by injected ligands (Table 5); assay type: in vivo
Source text: as §1
The ^232 U was obtained from the Isotope Products Laboratory, Burbank, Calif., and ^234,235 U was obtained as U metal from long-held LBL storage. The two U sources were combined and dissolved in 6N HNO3, dried, and redissolved in 0.1N HCl. The daughter radioactivities were removed by elution from a Dowex-50X4 column (22 cm length, 0.7 cm diameter, 1.5 mL min^-1 flow rate) with 3.2N HCl. The U fractions (previously identified by a trial run with ^234,235 U alone) were combined, dried, and redissolved in 0.14M NaCl at pH 5.5.
as §2, §3

[6] = Promoting excretion of 237Np(V) in mice by injected ligands (Table 5); assay type: in vivo
Source text: as §1
The ^237 Np(V) was obtained from J. Bucher of the LBL Actinide Chemistry group as NpO2 Cl in 0.1M HCl. It was diluted to the desired radioactivity concentration in 0.14M NaCl and the pH was adjusted to about 4.5 with NaOH just before use.
as §2, §3

[7] = assay type: in vivo, mice; settings: for body weight / plasma urea N: mean ± SD
Method: The test of acute toxicity of these novel ligands was carried out as follows. […] The ligand was dissolved in 0.5 to 1.0 ml of saline at pH 7 to 8. After a period of observation, the mice were killed, selected tissues were removed and fixed for histopathological examination,and unusual findings at autopsy were recorded.

[8] = 30 μmol/kg i.p. at 3 to 5 min after actinide i.v.
[9] = 30 μmol/kg i.p. at 3 to 5 min after actinide i.v., pooled
[10] = protocol I: 100 μmol/kg × 10 daily i.p., 11 d
[11] = protocol I: 100 μmol/kg × 10 daily i.p., 21 d
[12] = protocol II: 500 μmol/kg × 2 in 8 h i.p., 8 d

CCCNC(=O)c1ccn(C)c(=O)c1O [3-hydroxy-1-methyl-4(1-propylcarbamoyl)-2(1H)-pyridinone]
pM for Fe(III) [1]: 19.26 | solubility (in words) [2]: very soluble in water as well as organic solvents

Cn1ccc(C(=O)NCCN(CCNC(=O)c2ccn(C)c(=O)c2O)CCNC(=O)c2ccn(C)c(=O)c2O)c(O)c1=O [TREN-Me-3,2-HOPO]
pM for Fe(III) [1]: 26.69 | reduction of Am content (in words) ([3]; 30 μmol/kg i.p.): reduced the body content of all three actinides to a significantly greater degree than CaNa3 -DTPA; also recorded: the Am content of all tissues was greatly reduced | Am(III) in liver at 24 h [3, 8]: 1.0 ± 0.6% of injected actinide | Am(III) in skeleton at 24 h [3, 8]: 8.1 ± 6% of injected actinide | Am(III) in soft tissue at 24 h [3, 8]: 1.6 ± 0.6% of injected actinide | Am(III) in whole body at 24 h [3, 8]: 11 ± 1.4% of injected actinide | Am(III) excreta: feces and GI contents [3, 9]: 8% of injected actinide | Am(III) excreta: urine 0-24 h [3, 9]: 51% of injected actinide | Am(III) in kidneys at 24 h [3, 9]: 0.2% of injected actinide | effectiveness of Pu removal, oral (in words) [4]: the most effective both (by oral and injection) cases | reduction of U content (in words) ([5]; 30 μmol/kg i.p.): reduced the body content of all three actinides to a significantly greater degree than CaNa3 -DTPA; also recorded: more than one-half of the U burden in the kidneys was removed | U(VI) in kidneys at 24 h [5, 8]: 1.6 ± 0.3% of injected actinide | U(VI) in liver at 24 h [5, 8]: 0.6 ± 0.3% of injected actinide | U(VI) in skeleton at 24 h [5, 8]: 16 ± 2.4% of injected actinide | U(VI) in soft tissue at 24 h [5, 8]: 1.6 ± 0.3% of injected actinide | U(VI) in whole body at 24 h [5, 8]: 9.4 ± 6.0% of injected actinide | U(VI) excreta: feces and GI contents [5, 9]: 2.3% of injected actinide | U(VI) excreta: urine 0-24 h [5, 9]: 70% of injected actinide | reduction of Np content (in words) ([6]; 30 μmol/kg i.p.): reduced the body content of all three actinides to a significantly greater degree than CaNa3 -DTPA; also recorded: the Np content of the soft tissues was significantly reduced | Np(V) in liver at 24 h [6, 8]: 3.8 ± 5.7% of injected actinide | Np(V) in skeleton at 24 h [6, 8]: 34 ± 4.5% of injected actinide | Np(V) in soft tissue at 24 h [6, 8]: 3.1 ± 1.1% of injected actinide | Np(V) in whole body at 24 h [6, 8]: 42 ± 11% of injected actinide | Np(V) excreta: feces and GI contents [6, 9]: 17% of injected actinide | Np(V) excreta: urine 0-24 h [6, 9]: 40% of injected actinide | Np(V) in kidneys at 24 h [6, 9]: 1.0% of injected actinide | body weight [7, 10]: 102 ± 1 percent control | plasma urea N [7, 10]: 112 ± 10 percent control | no. of survivors ([7]; protocol I: 100 μmol/kg × 10 daily i.p., 11 d, of 5 mice): 5 | body weight [7, 11]: 106 ± 4 percent control | plasma urea N [7, 11]: 120 ± 9 percent control | no. of survivors ([7]; protocol I: 100 μmol/kg × 10 daily i.p., 21 d, of 5 mice): 5 | body weight [7, 12]: 101 ± 4 percent control | plasma urea N [7, 12]: 119 ± 15 percent control | no. of survivors ([7]; protocol II: 500 μmol/kg × 2 in 8 h i.p., 8 d, of 19 (TREN) or 10 (H(2,2)) mice): 19
